Reference: EP4741392A1, “1H-PYRAZOLO[4,3-C]PYRIDINE COMPOUND, AND COMPOSITION THEREOF AND USE THEREOF” (Shenzhen TargetRx Co., Ltd., priority 2023, dated 2025)

Tests used:
Assay type in all cases: cell-based
Ramos cells with BTK WT = assay: Phosphor-BTK(Y223) assay, suspended cells; conditions: Homo sapiens, Ramos, phosphorylated BTK Y223, Ramos cells with BTK WT
Experimental: (§1) The purpose of this assay was to simply, quickly and directly detect the level of endogenous BTK phosphorylation in cells.
The steps for handling suspended cells were as follows: • 1) Ramos cells with BTK WT (2.5 k/well), BTK C481S (2.5 k/well), or BTK T474I (2.5 k/well) were plated in a 96-well plate, respectively. A compound of different concentration gradients was added using Tecan D300e, and the plate was incubated at 37 °C and 5% CO2 for 2 hours. • 2) 8.33 µL of 20 mM Na3VO4 was added to bring the final concentration to 5 mM, and the plate was incubated at 37 °C and 5% CO2 for 3 h. • 3) During the incubation, the following reagents were prepared: • 4x added lysis buffer: 24 vol 4x lysis buffer + 1 vol 25x blocking reagent. • p-BTK (Y223) cryptate-antibody and p-BTK (Y223) d2-antibody working solutions: 1 volume of each cryopreserved antibody (stored at - 20 °C) was added to 38 times the volume of assay buffer (stored at 4 °C), and mixed well. • 4) After the incubation was completed, 11.1 µL of 4x added lysis buffer was directly added. The plate was shaken at 800 rpm at room temperature for 30 min. • 5) The lysate was mixed well and 16 µL of it was transferred to a 384-well plate. 1 × added lysis buffer was used as a blank control. • 6) 4 µL of pre-mixed working solutions of the two antibodies (cryptate Ab:d2 Ab = 1:1) was added, and the plate was sealed. • 7) The plate was incubated at room temperature overnight. • 8) The plate was read at 665nm and 620nm using Biotek cytation3.0 microplate reader, and the ratio of 665/620nm of each well was calculated. Data analysis: IC50 was calculated using GraphPad Prism 7.0 software.
(§2) The IC50 (half-maximal phosphorylation inhibitory concentration) of the phosphorylated BTK Y223 of the compound was obtained using the following nonlinear fitting formula: Y = Bottom + (Top−Bottom)/(1+10^(∧)((LogIC50−X)*HillSlope)) [formula] • X: Log value of the compound concentration • Y: Inhibition rate (% inhibition) • Top: Maximum response • Bottom: Baseline response • HillSlope: Slope of the curve
(§3) The formula for calculating cell phosphorylation inhibition rate (inhibition rate %) was: Inhibition rate% = 1−(eachconcentrationwell-blankwell)/(positivecontrolwell−blankwell) [formula]

NIH/3T3 BTK C481S cells = assay: Phosphor-BTK(Y223) assay, adherent cells; conditions: Mus musculus, NIH3T3, phosphorylated BTK Y223, NIH/3T3 BTK C481S cells; read-out: NIH/3T3 BTK-C481S pBTK
Experimental: as §1
(§4) The steps for handling adherent cells were as follows: • 1) NIH/3T3 BTK WT cells (7.5 k/well) and NIH/3T3 BTK C481S cells (10 k/well) were plated in a 96-well plate, respectively, and cultured at 37 °C and 5% CO2 overnight. • 2) A 3-fold final concentration gradient dilution of a compound was prepared, and 50 µL of it was taken and added to 100 µL of cell culture. 0.5% DMSO was used as a positive control for cell growth. • 3) The plate was incubated at 37 °C and 5% CO2 for 0.5 h. • 4) Na3VO4 at a final concentration of 1mM was added, and the plate was incubated at 37 °C and 5% CO2 for 2 hours. • 5) During the incubation, the following reagents were prepared: • 1x added lysis buffer: 3 vol ddH2O + 1 vol 4x lysis buffer + 100x blocking reagent. • p-BTK (Y223) cryptate-antibody and p-BTK (Y223) d2-antibody working solutions: 1 volume of each cryopreserved antibody (stored at - 20 °C) was added to 19 times the volume of assay buffer (stored at 4 °C). • 6) After the incubation was completed, the medium was removed and 50 µL of 1x added lysis buffer was added. The plate was centrifuged at 500 rpm at room temperature for 30 min. • 7) The lysate was mixed well and 16 µL of it was transferred to a 384-well plate. 1 × added lysis buffer was used as a blank control. • 8) 4 µL of pre-mixed working solutions of the two antibodies (cryptate Ab:d2 Ab = 1:1) was added, and the plate was sealed. • 9) The plate was incubated at room temperature overnight. 10) The plate was read at 665nm and 620nm using Biotek cytation3.0 microplate reader, and the ratio of 665/620nm of each well was calculated.
as §2, §3

NIH/3T3 BTK WT cells = assay: Phosphor-BTK(Y223) assay, adherent cells; conditions: Mus musculus, NIH3T3, phosphorylated BTK Y223, NIH/3T3 BTK WT cells; read-out: NIH/3T3 BTK-WT pBTK
Experimental: as §1, §4, §2, §3

Work on COc1ccc(F)cc1C(=O)NCc1ccc(-c2ncc(-c3cnc4cnccn34)c3[nH]nc(N)c23)cc1 [Example 64, N-(4-(3-amino-7-(imidazo[1,2-a]pyrazin-3-yl)-1H-pyrazolo[4,3-c]pyridin-4-yl)benzyl)-5-fluoro-2-methoxybenzamide] yielded an IC50 (Ramos cells with BTK WT) of over 50 nM, an IC50 (NIH/3T3 BTK C481S cells) of over 50 nM and an IC50 (NIH/3T3 BTK WT cells) of over 50 nM.
COc1ccc(F)cc1C(=O)NCc1ccc(-c2nc(C3CCS(=O)(=O)CC3)cc3[nH]nc(N)c23)cc1 [Example 93, N-(4-(3-amino-6-(1,1-dioxidotetrahydro-2H-thiopyran-4-yl)-1H-pyrazolo[4,3-c]pyridin-4-yl)benzyl)-5-fluoro-2-methoxybenzamide] gave an IC50 (Ramos cells with BTK WT) of over 50 nM, an IC50 (NIH/3T3 BTK C481S cells) of over 50 nM and an IC50 (NIH/3T3 BTK WT cells) of over 50 nM.
COc1ccc(F)cc1C(=O)NCc1ccc(-c2nc(Cl)cc3[nH]nc(N)c23)cc1 [Example 94, N-(4-(3-amino-6-chloro-1H-pyrazolo[4,3-c]pyridin-4-yl)benzyl)-5-fluoro-2-methoxybenzamide] showed an IC50 (Ramos cells with BTK WT) of over 50 nM, an IC50 (NIH/3T3 BTK C481S cells) of over 50 nM and an IC50 (NIH/3T3 BTK WT cells) of over 50 nM.
COc1ccc(F)cc1C(=O)NCc1ccc(-c2ncc(-c3cncnc3)c3[nH]nc(N)c23)cc1 [Example 16, N-(4-(3-amino-7-(pyrimidin-5-yl)-1H-pyrazolo[4,3-c]pyridin-4-yl)benzyl)-5-fluoro-2-methoxybenzamide] gave an IC50 (Ramos cells with BTK WT) of over 50 nM, an IC50 (NIH/3T3 BTK C481S cells) of over 50 nM and an IC50 (NIH/3T3 BTK WT cells) of over 50 nM.
COc1ccc(F)cc1C(=O)NCc1ccc(-c2nc(-c3ccc(C(=O)O)cc3)cc3[nH]nc(N)c23)cc1 [Example 90, 4-(3-amino-4-(4-((5-fluoro-2-methoxybenzoylamino)methyl)phenyl)-1H-pyrazolo[4,3-c]pyridin-6-yl)benzoic acid] was tested, and the IC50 (Ramos cells with BTK WT) was over 50 nM, the IC50 (NIH/3T3 BTK C481S cells) was over 50 nM and the IC50 (NIH/3T3 BTK WT cells) was over 50 nM.
Work on COc1ccc(F)cc1C(=O)NCc1ccc(-c2ncc(-c3cnn4ccccc34)c3[nH]nc(N)c23)cc1 [Example 33, N-(4-(3-amino-7-(pyrazolo[1,5-a]pyridin-3-yl)-1H-pyrazolo[4,3-c]pyridin-4-yl)benzyl)-5-fluoro-2-methoxybenzamide] yielded an IC50 (Ramos cells with BTK WT) of over 50 nM, an IC50 (NIH/3T3 BTK C481S cells) of over 50 nM and an IC50 (NIH/3T3 BTK WT cells) of over 50 nM.
COc1ccc(F)cc1C(=O)NCc1ccc(-c2nc(C3CCN(C(=O)Nc4ccccc4)CC3)cc3[nH]nc(N)c23)cc1 [Example 97, 4-(3-amino-4-(4-((5-fluoro-2-methoxvbenzoylamino)methyl)phenyl)-1H-pyrazolo[4,3-c]pyridin-6-yl)-N-phenylpiperidine-1-carboxamide] gave an IC50 (Ramos cells with BTK WT) of 5 to 10 nM, an IC50 (NIH/3T3 BTK C481S cells) of over 50 nM and an IC50 (NIH/3T3 BTK WT cells) of over 50 nM.
In the case of COc1ccc(F)cc1C(=O)NCc1ccc(-c2nc(C(C)C(F)(F)F)c(-c3ccnnc3)c3[nH]nc(N)c23)cc1 (centres unmarked) [Example 11, N-(4-(3-amino-7-(pyridazin-4-yl)-6-(1,1,1-trifluoropropan-2-yl)-1H-pyrazolo[4,3-c]pyridin-4-yl)benzyl)-5-fluoro-2-methoxybenzamide], the IC50 (Ramos cells with BTK WT) is reported as over 50 nM, the IC50 (NIH/3T3 BTK C481S cells) is reported as over 50 nM and the IC50 (NIH/3T3 BTK WT cells) is reported as over 50 nM.
For COc1ccc(F)cc1C(=O)NCc1ccc(-c2ncc(-c3ccc(F)cn3)c3[nH]nc(N)c23)c(C)c1 [Example 83, N-(4-(3-amino-7-(5-fluoropyridin-2-yl)-1H-pyrazolo[4,3-c]pyridin-4-yl)-3-methylbenzyl)-5-fluoro-2-methoxybenzamide], the IC50 (Ramos cells with BTK WT) was over 50 nM, the IC50 (NIH/3T3 BTK C481S cells) was over 50 nM and the IC50 (NIH/3T3 BTK WT cells) was 10 to 50 nM.
In the case of COc1ccc(F)cc1C(=O)NCc1ccc(-c2nc(C(C)C(F)(F)F)c(-c3cncnc3)c3[nH]nc(N)c23)cc1 (centres unmarked) [Example 10, N-(4-(3-amino-7-(pyrimidin-5-yl)-6-(1,1,1-trifluoropropan-2-yl)-1H-pyrazolo[4,3-c]pyridin-4-yl)benzyl)-5-fluoro-2-methoxybenzamide], the IC50 (Ramos cells with BTK WT) is reported as over 50 nM, the IC50 (NIH/3T3 BTK C481S cells) is reported as over 50 nM and the IC50 (NIH/3T3 BTK WT cells) is reported as over 50 nM.
Molecule COc1ccc(F)cc1C(=O)NCc1ccc(-c2nc(C3CCCN(C(=O)Nc4ccccc4)C3)cc3[nH]nc(N)c23)cc1 (centres unmarked) [Example 95, 3-(3-amino-4-(4-((5-fluoro-2-methoxybenzoylamino)methyl)phenyl)-1H-pyrazolo[4,3-c]pyridin-6-yl)-N-phenylpiperidine-1-carboxamide] has an IC50 (Ramos cells with BTK WT) of 5 to 10 nM, an IC50 (NIH/3T3 BTK C481S cells) of over 50 nM and an IC50 (NIH/3T3 BTK WT cells) of over 50 nM.
Molecule COc1ccc(F)cc1C(=O)NCc1ccc(-c2nc(-c3ccccc3C)cc3[nH]nc(N)c23)cc1 [Example 87, N-(4-(3-amino-6-(o-tolyl)-1H-pyrazolo[4,3-c]pyridin-4-yl)benzyl)-5-fluoro-2-methoxybenzamide] has an IC50 (Ramos cells with BTK WT) of over 50 nM, an IC50 (NIH/3T3 BTK C481S cells) of over 50 nM and an IC50 (NIH/3T3 BTK WT cells) of over 50 nM.
With COc1ccc(F)cc1C(=O)NCc1ccc(-c2nc(C(C)C(F)(F)F)c(-c3ccc(F)cn3)c3[nH]nc(N)c23)cc1 (centres unmarked) [Example 13, N-(4-(3-amino-7-(5-fluoropyridin-2-yl)-6-(1,1,1-trifluoropropan-2-yl)-1H-pyrazolo[4,3-c]pyridin-4-yl)benzyl)-5-fluoro-2-methoxybenzamide] the IC50 (Ramos cells with BTK WT) was over 50 nM, the IC50 (NIH/3T3 BTK C481S cells) was over 50 nM and the IC50 (NIH/3T3 BTK WT cells) was over 50 nM.
COc1ccc(F)cc1C(=O)NCc1ccc(-c2nc(C(C)C(F)(F)F)c(-c3ccc(C(F)(F)F)cn3)c3[nH]nc(N)c23)cc1 (centres unmarked) [Example 12, N-(4-(3-amino-7-(5-(trifluoromethyl)pyridin-2-yl)-6-(1,1,1-trifluoropropan-2-yl)-1H-pyrazolo[4,3-c]pyridin-4-yl)benzyl)-5-fluoro-2-methoxybenzamide] gave an IC50 (Ramos cells with BTK WT) of over 50 nM, an IC50 (NIH/3T3 BTK C481S cells) of over 50 nM and an IC50 (NIH/3T3 BTK WT cells) of over 50 nM.
In the case of COc1ccc(F)cc1C(=O)NCc1ccc(-c2nc(-c3ccccc3Cl)cc3[nH]nc(N)c23)cc1 [Example 88, N-(4-(3-amino-6-(2-chlorophenyl)-1H-pyrazolo[4,3-c]pyridin-4-yl)benzyl)-5-fluoro-2-methoxybenzamide], the IC50 (Ramos cells with BTK WT) is reported as 5 to 10 nM, the IC50 (NIH/3T3 BTK C481S cells) is reported as over 50 nM and the IC50 (NIH/3T3 BTK WT cells) is reported as 10 to 50 nM.
For COc1ccc(F)cc1C(=O)NCc1ccc(-c2ncc(-c3cnn4ccncc34)c3[nH]nc(N)c23)cc1 [Example 109, N-(4-(3-amino-7-(pyrazolo[1,5-a]pyrazin-3-yl)-1H-pyrazolo[4,3-c]pyridin-4-yl)benzyl)-5-fluoro-2-methoxybenzamide], the IC50 (Ramos cells with BTK WT) was over 50 nM, the IC50 (NIH/3T3 BTK C481S cells) was over 50 nM and the IC50 (NIH/3T3 BTK WT cells) was over 50 nM.
In the case of COc1ccc(F)cc1C(=O)NCc1ccc(-c2ncc(-c3ccnc4ccnn34)c3[nH]nc(N)c23)cc1 [Example 111, N-(4-(3-amino-7-(pyrazolo[1,5-a]pyrimidin-7-yl)-1H-pyrazolo[4,3-c]pyridin-4-yl)benzyl)-5-fluoro-2-methoxybenzamide], the IC50 (Ramos cells with BTK WT) is reported as over 50 nM, the IC50 (NIH/3T3 BTK C481S cells) is reported as over 50 nM and the IC50 (NIH/3T3 BTK WT cells) is reported as over 50 nM.
COc1ccc(F)cc1C(=O)NCc1ccc(-c2ncc(-c3ccnn3C)c3[nH]nc(N)c23)cc1 [Example 32, N-(4-(3-amino-7-(1-methyl-1H-pyrazol-5-yl)-1H-pyrazolo[4,3-c]pyridin-4-yl)benzyl)-5-fluoro-2-methoxybenzamide] gave an IC50 (Ramos cells with BTK WT) of over 50 nM, an IC50 (NIH/3T3 BTK C481S cells) of over 50 nM and an IC50 (NIH/3T3 BTK WT cells) of over 50 nM.
COc1ccc(F)cc1C(=O)NCc1ccc(-c2cc(C(C)C(F)(F)F)cc3[nH]nc(N)c23)cc1 (centres unmarked) [Example 86, N-(4-(3-amino-6-(1,1,1-trifluoropropan-2-yl)-1H-indazol-4-yl)benzyl)-5-fluoro-2-methoxybenzamide] gave an IC50 (NIH/3T3 BTK C481S cells) of over 50 nM and an IC50 (NIH/3T3 BTK WT cells) of over 50 nM.
